Read-outs that look alike come from different tables or passages of the source. Marks after values point to notes of the source that are not given here.
How the values were obtained:
[1] = system: 1X-Ab; test: Competitive antigen ELISA, cross-reactivity of 1X-Ab; assay type: binding, rabbit; settings: 0 = absence of inhibition or inhibition no higher than 40% at 5 × 10^−3 M
Procedure: (§1) Buffers and water without additives are filtered through millipore filters and kept for 1 week. BSA, antibodies, Tween™ 20 and horse radish peroxidase conjugates are added to these buffers and water just prior to use. Urine samples are usually collected 4 hours after drinking a cup of coffee (instant or brewed with approximately 100 mg of caffeine per cup) and stored at −80° C. The urine samples are diluted 10 times with sodium phosphate buffer (620 mosm, pH 7.50) and are subsequently diluted with water to give concentrations of AAMU and 1X no higher than 3×10^−6 M in the ELISA. All the pipettings are done with an eight-channel pipette, except those of the antibody and sample solutions. Starting with the last well, 100 μL of a carbonate buffer (100 mM, pH 9.6) containing 2.5 μg mL^−1 antibodies are added to each well. After 90 min. at room temperature, the wells are washed three times with […] of TPB: isotonic sodium phosphate buffer (310 mosm, pH 7.50) containing 0.05% Tween™ 20.
(§2) After the initial wash, unoccupied sites are blocked by incubation for 90 min. at room temperature with 100 μL TBP containing 3% BSA. The wells are washed four times with 100 μL TPB. […] The microplate is gently shaken with an orbital shaker at room temperature for 3-4 hours. The wells are washed three times with 100 μL TPB containing 1% BSA and three times with water containing 0.05% Tween™ 20. To the washed plate is added 150 μL of a substrate buffer composed of citric acid (25 mM) and sodium phosphate dibasic buffer (50 mM, pH 5.0) containing 0.06% hydrogen peroxide and 0.04% o-phenylenediamine hydrochloride.
(§3) Buffers and water without additives were filtered through millipore filters and kept for 1 week. BSA, antibodies, Tween™ 20 and horse radish peroxidase conjugates were added to these buffers and water just prior to use. Urine samples were usually collected 4 hours after drinking a cup of coffee (instant or brewed with approximately 100 mg of caffeine per cup) and stored at −80° C. They were diluted 10 times with sodium phosphate buffer (620 mosm, pH 7.50) and were subsequently diluted with water to give concentrations of AAMU and 1X no higher than 3×10^−6 M in the ELISA. All the pipettings were done with an eight-channel pipette, except those of the antibody and sample solutions. Starting with the last well, 100 μL of a carbonate buffer (100 mM, pH 9.6) containing 2.5 μg mL^−1 antibodies was pipetted. After 90 min. at room temperature, the wells were washed three times with 100 μL of TPB: isotonic sodium phosphate buffer (310 mosm, pH 7.50) containing 0.05% Tween™ 20.
(§4) After the initial wash, unoccupied sites were blocked by incubation for 90 min. at room temperature with 100 μL TBP containing 3% BSA. The wells were washed four times with 100 μL TPB. […] The microplate was gently shaken with an orbital shaker at room temperature for 3-4 hours. The wells were washed three times with 100 μL with TPB containing 1% BSA and three times with water containing 0.05% Tween™ 20. To the washed plate was added 150 μL of a substrate buffer composed of citric acid (25 mM) and sodium phosphate dibasic buffer (50 mM, pH 5.0) containing 0.06% hydrogen peroxide and 0.04% o-phenylenediamine hydrochloride. After 20 min. at room temperature with shaking, the reaction was stopped with 50 μL of 2.5 N HCl.
(§5) The cross reactivities of AAMU-Ab and 1X-Ab were tested using a wide variety of caffeine metabolites and structural analogs (Table 3 below).

[2] = system: AAMU-Ab; test: Competitive antigen ELISA, cross-reactivity of AAMU-Ab; assay type: binding, rabbit; settings: 0 = absence of inhibition or inhibition no higher than 40% at 5 × 10^−3 M
Procedure: as §1, §2, §3, §4, §5

[3] = co-administration with ritonavir; cited from earlier work
[4] = in vivo; cited from earlier work
[5] = cited from earlier work
[6] = system: HIV isolates; settings: HIV isolates from individuals during ritonavir therapy vs matched baseline isolates; cited from earlier work
[7] = in vivo; cited from earlier work; remark: listed apart in the source

Cn1c(=O)c2c(ncn2C)n(C)c1=O [1,3,7-Trimethyl Xanthine (Caffeine), 1,3,7-Trimethyl Xanthine]
% Cross-Reaction 1X-Ab [1]: 0% | % Cross-Reaction AAMU-Ab [2]: 0%

Cn1c(=O)c2[nH]cnc2n(C)c1=O [1,3-Dimethyl Xanthine (Theophylline), 1,3-Dimethyl Xanthine]
% Cross-Reaction 1X-Ab [1]: 0.2% | Effect (on drug concentration) [3]: down theophylline | % Cross-Reaction AAMU-Ab [2]: 0%

Cn1c(=O)[nH]c2ncn(C)c2c1=O [1,7-Dimethyl Xanthine (Paraxanthine), 1,7-Dimethyl Xanthine]
% Cross-Reaction 1X-Ab [1]: 0.5% | % Cross-Reaction AAMU-Ab [2]: 0%

Cn1c(=O)[nH]c2[nH]c(=O)n(C)c2c1=O [1,7-Dimethyluric acid]
% Cross-Reaction 1X-Ab [1]: 0% | % Cross-Reaction AAMU-Ab [2]: 0%

Cn1c(=O)[nH]c2nc[nH]c2c1=O [1-Methyl Xanthine (1X), 1-Methyl Xanthine]
% Cross-Reaction 1X-Ab [1]: 100% | % Cross-Reaction AAMU-Ab [2]: 0%

Cn1c(=O)[nH]c2[nH]c(=O)[nH]c2c1=O [1-Methyluric acid]
% Cross-Reaction 1X-Ab [1]: 11% | % Cross-Reaction AAMU-Ab [2]: 0%

Cn1cnc2c1c(=O)[nH]c(=O)n2C [3,7-Dimethyl Xanthine (Theobromine), 3,7-Dimethyl Xanthine]
% Cross-Reaction 1X-Ab [1]: 0% | % Cross-Reaction AAMU-Ab [2]: 0%

Cn1c(=O)[nH]c(=O)c2[nH]cnc21 [3-Methyl Xanthine]
% Cross-Reaction 1X-Ab [1]: 0% | % Cross-Reaction AAMU-Ab [2]: 0%

CC(=O)Nc1c(N)n(C)c(=O)n(C)c1=O [5-Acetamino-6-amino-1,3-dimethyluracil]
% Cross-Reaction 1X-Ab [1]: 0% | % Cross-Reaction AAMU-Ab [2]: 0%

CC(=O)Nc1c(N)n(C)c(=O)[nH]c1=O [5-Acetamino-6-amino-1-methyluracil]
% Cross-Reaction 1X-Ab [1]: 0% | % Cross-Reaction AAMU-Ab [2]: 100%

CC(=O)Nc1c(N)[nH]c(=O)[nH]c1=O [5-Acetamino-6-amino-uracil]
% Cross-Reaction 1X-Ab [1]: 0% | % Cross-Reaction AAMU-Ab [2]: 0.6%

Cn1cnc2[nH]c(=O)[nH]c(=O)c21 [7-Methyl Xanthine]
% Cross-Reaction 1X-Ab [1]: 0% | % Cross-Reaction AAMU-Ab [2]: 0%

Cc1nc2[nH]c(=O)[nH]c(=O)c2[nH]1 [8-Methyl Xanthine]
% Cross-Reaction 1X-Ab [1]: 0% | % Cross-Reaction AAMU-Ab [2]: 0%

CC(C)[C@H](NC(=O)N(C)Cc1csc(C(C)(C)O)n1)C(=O)N[C@@H](Cc1ccccc1)C[C@H](O)[C@H](Cc1ccccc1)NC(=O)OCc1cncs1 [Compound M-2]
concentrations of metabolite in plasma [4]: low

COc1ccc2c(c1)[C@]13CCCC[C@@H]1[C@H](C2)N(C)CC3 [Dextromethorphan]
mean performance+/−SE ([5]; EMs (extensive metabolizers)): 95+/−0.5% | mean performance+/−SE ([5]; PMs (poor metabolizers)): 86+/−6%

Nc1nc2nc[nH]c2c(=O)[nH]1 [Guanine]
% Cross-Reaction 1X-Ab [1]: 0% | % Cross-Reaction AAMU-Ab [2]: 0%

O=c1[nH]cnc2nc[nH]c12 [Hypoxanthine]
% Cross-Reaction 1X-Ab [1]: 0% | % Cross-Reaction AAMU-Ab [2]: 0%

CC(C)(C)NC(=O)[C@@H]1CN(Cc2cccnc2)CCN1C[C@@H](O)C[C@@H](Cc1ccccc1)C(=O)N[C@H]1c2ccccc2C[C@H]1O [Indinavir, indinavir]
decrease in susceptibility in vitro [6]: 8 fold

CC(=O)N1CCN(c2ccc(OCC3COC(Cn4ccnc4)(c4ccc(Cl)cc4Cl)O3)cc2)CC1 (stereo not shown) [Ketoconazole]
Effect (on drug concentration) [3]: up ketoconazole

CCOC(=O)C1(c2ccccc2)CCN(C)CC1 [Meperidine]
Effect (on drug concentration) [3]: down meperidine

CCC(=O)C(CC(C)N(C)C)(c1ccccc1)c1ccccc1 (stereo not shown) [Methadone]
Effect (on drug concentration) [3]: down methadone

CC(C)(C)NC(=O)[C@@H]1C[C@@H]2CCCC[C@@H]2CN1C[C@@H](O)[C@H](Cc1ccccc1)NC(=O)[C@H](CC(N)=O)NC(=O)c1ccc2ccccc2n1 [Saquinavir, saquinavir]
decrease in susceptibility in vitro [6]: did not demonstrate a concordant decrease in susceptibility

O=c1cc[nH]c(=O)[nH]1 [Uracil]
% Cross-Reaction 1X-Ab [1]: 0% | % Cross-Reaction AAMU-Ab [2]: 0%

O=c1[nH]c(=O)c2[nH]c(=O)[nH]c2[nH]1 [Uric acid]
% Cross-Reaction 1X-Ab [1]: 0% | % Cross-Reaction AAMU-Ab [2]: 0%

O=c1[nH]c(=O)c2[nH]cnc2[nH]1 [Xanthine]
% Cross-Reaction 1X-Ab [1]: 0% | % Cross-Reaction AAMU-Ab [2]: 0^a %

Cc1cn([C@H]2C[C@H](N=[N+]=[N-])[C@@H](CO)O2)c(=O)[nH]c1=O [ZDV, zidovudine]
Adverse event: Abdominal Pain [7]: 5.9% | Adverse event: Anorexia [7]: 4.2% | Adverse event: Anxiety [7]: 0.8% | Adverse event: Arthralgia [7]: 0.0% | Adverse event: Asthenia [7]: 11.8% | Adverse event: Circumoral Paresthesia [7]: 0.0% | Adverse event: Confusion [7]: 0.0% | Adverse event: Constipation [7]: 0.8% | Adverse event: Depression [7]: 2.5% | Adverse event: Diarrhea [7]: 2.5% | Adverse event: Dizziness [7]: 3.4% | Adverse event: Dyspepsia [7]: 1.7% | Adverse event: Fecal Incontinence [7]: 0.0% | Adverse event: Fever [7]: 1.7% | Adverse event: Flatulence [7]: 1.7% | Adverse event: Headache [7]: 6.7% | Adverse event: Insomnia [7]: 0.8% | Adverse event: Local Throat Irritation [7]: 0.8% | Adverse event: Malaise [7]: 3.4% | Adverse event: Myalgia [7]: 0.8% | Adverse event: Nausea [7]: 26.1% | Adverse event: Nocturia [7]: 0.0% | Adverse event: Pain (unspecified) [7]: 0.8% | Adverse event: Paresthesia [7]: 0.0% | Adverse event: Peripheral Paresthesia [7]: 0.8% | Adverse event: Pharyngitis [7]: 0.0% | Adverse event: Rash [7]: 0.8% | Adverse event: Somnolence [7]: 0.0% | Adverse event: Sweating [7]: 1.7% | Adverse event: Syncope [7]: 0.8% | Adverse event: Taste Perversion [7]: 8.4% | Adverse event: Thinking Abnormal [7]: 0.8% | Adverse event: Vasodilation [7]: 0.8% | Adverse event: Vomiting [7]: 12.6% | Adverse event: Weight Loss [7]: 0.0%

CC(C)CN(C[C@@H](O)[C@H](Cc1ccccc1)NC(=O)O[C@H]1CCOC1)S(=O)(=O)c1ccc(N)cc1 [amprenavir]
decrease in susceptibility in vitro [6]: none

CCOC(=O)C1(c2ccccc2)CCNCC1 [normeperidine]
Effect (on drug concentration) [3]: up normeperidine
